Experimental data from ChEMBL document CHEMBL1201862, “PubChem BioAssay data set” (2004).
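Values below derive from 48-hour exposures of cells grown in 96-well plates, with endpoints linearly interpolated between the two concentrations bracketing the appropriate inhibition level. The concentration for 50% growth inhibition is given as GI50.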 The source made the active and inactive calls. Cut-off read from the data, not from the text of the source: active = GI50 up to about 1.1 µM and inactive = higher.

Experiments:
Test in all cases: growth of human tumour cells (NCI), 48 h
786-0 = tested on: 786-0
A498 = tested on: A498
A549 = tested on: A549
ACHN = tested on: ACHN
CAKI-1 = tested on: CAKI-1
CCRF-CEM = tested on: CCRF-CEM
COLO 205 = tested on: COLO 205
DMS-114 = tested on: DMS-114
EKVX = tested on: EKVX
HCT-116 = tested on: HCT-116
HL-60 = tested on: HL-60
HOP-62 = tested on: HOP-62
HOP-92 = tested on: HOP-92
HT-29 = tested on: HT-29
K562 = tested on: K562
KM12 = tested on: KM12
LXFL 529 = tested on: LXFL 529
M14 = tested on: M14
M19-MEL = tested on: M19-MEL
MOLT-4 = tested on: MOLT-4
Malme-3M = tested on: Malme-3M
NCI-H226 = tested on: NCI-H226
NCI-H23 = tested on: NCI-H23
NCI-H460 = tested on: NCI-H460
NCI-H522 = tested on: NCI-H522
OVCAR-3 = tested on: OVCAR-3
OVCAR-4 = tested on: OVCAR-4
OVCAR-5 = tested on: OVCAR-5
OVCAR-8 = tested on: OVCAR-8
RPMI-8226 = tested on: RPMI-8226
SF-268 = tested on: SF-268
SF-295 = tested on: SF-295
SK-MEL-28 = tested on: SK-MEL-28
SK-MEL-2 = tested on: SK-MEL-2
SK-OV-3 = tested on: SK-OV-3
SN12C = tested on: SN12C
SNB-19 = tested on: SNB-19
SNB-78 = tested on: SNB-78
SR = tested on: SR
SW-620 = tested on: SW-620
TK-10 = tested on: TK-10
U-251 = tested on: U-251
UACC-257 = tested on: UACC-257
UACC-62 = tested on: UACC-62
UO-31 = tested on: UO-31
XF498 = tested on: XF498
DLD-1 = tested on: DLD-1
DMS-273 = tested on: DMS-273
HCC 2998 = tested on: HCC 2998
HCT-15 = tested on: HCT-15
IGROV-1 = tested on: IGROV-1
KM-20L2 = tested on: KM-20L2
LOX IMVI = tested on: LOX IMVI
RXF 393 = tested on: RXF 393
SF-539 = tested on: SF-539
SK-MEL-5 = tested on: SK-MEL-5
SNB-75 = tested on: SNB-75

Measured: GI50

O=C1CCN2C(=O)CCN12
inactive: 786-0 > 100 µM | A498 > 100 µM | A549 > 100 µM | ACHN > 100 µM | CAKI-1 > 100 µM | CCRF-CEM > 100 µM | COLO 205 > 100 µM | DMS-114 > 100 µM | EKVX > 100 µM | HCT-116 > 100 µM | HL-60 > 100 µM | HOP-62 > 100 µM | HOP-92 > 100 µM | HT-29 > 100 µM | K562 > 100 µM | KM12 > 100 µM | LXFL 529 > 100 µM | M14 > 100 µM | M19-MEL > 100 µM | MOLT-4 > 100 µM | Malme-3M > 100 µM | NCI-H226 > 100 µM | NCI-H23 > 100 µM | NCI-H460 > 100 µM | NCI-H522 > 100 µM | OVCAR-3 > 100 µM | OVCAR-4 > 100 µM | OVCAR-5 > 100 µM | OVCAR-8 > 100 µM | RPMI-8226 > 100 µM | SF-268 > 100 µM | SF-295 > 100 µM | SK-MEL-28 > 100 µM | SK-MEL-2 > 100 µM | SK-OV-3 > 100 µM | SN12C > 100 µM | SNB-19 > 100 µM | SNB-78 > 100 µM | SR > 100 µM | SW-620 > 100 µM | TK-10 > 100 µM | U-251 > 100 µM | UACC-257 > 100 µM | UACC-62 > 100 µM | UO-31 > 100 µM | XF498 > 100 µM

CCN(CC)CCNC(=O)c1ccccc1Nc1c(Cl)cccc1Cl
inactive: 786-0 6.34 µM | A549 17 µM | ACHN 17.5 µM | CCRF-CEM 14.1 µM | COLO 205 12.9 µM | DLD-1 11.7 µM | DMS-114 11.6 µM | DMS-273 16.5 µM | EKVX 12.7 µM | HCC 2998 6.82 µM | HCT-116 12.8 µM | HL-60 7.41 µM | HOP-62 11.3 µM | HT-29 6.15 µM | IGROV-1 19.1 µM | K562 > 10 µM | KM-20L2 2.92 µM | LOX IMVI 11.3 µM | LXFL 529 16.5 µM | M14 18.1 µM | M19-MEL 16.1 µM | MOLT-4 13.1 µM | NCI-H226 17.8 µM | NCI-H23 18.2 µM | NCI-H460 4.39 µM | OVCAR-4 14.8 µM | OVCAR-5 7.55 µM | OVCAR-8 16.4 µM | RPMI-8226 12.2 µM | RXF 393 12.3 µM | SF-268 18.2 µM | SF-539 17 µM | SK-MEL-28 18.3 µM | SK-MEL-5 11.8 µM | SK-OV-3 16.7 µM | SN12C 13.7 µM | SNB-19 16.4 µM | SNB-75 11.2 µM | SNB-78 16.4 µM | SR 13 µM | SW-620 15.3 µM | TK-10 12.1 µM | U-251 6.56 µM | UACC-257 15.1 µM | UACC-62 17.1 µM | UO-31 9.95 µM | XF498 4.19 µM
12.6 µM: HCT-15
